This note sets out measurements from US12570612B2, “Substituted nitrogen heterocyclic compound and anesthetic effect thereof” (priority 2019, dated 2026).

In series [1] the test system is Sprague-Dawley rats. Put plainly: animal or person. To be noted: for Approximate therapeutic index / Minimal lethal dose: rats. The method, then: (§1) Adult male Sprague-Dawley rats (250-300 g) were selected for the experiment. […] The anesthesia effects of the compounds were assessed in rats using a LORR assay and a period >30 s was considered as an indicator of general anesthesia.

For series [2], the system named is Sprague-Dawley rats. Put plainly: Pharmacological characteristics at equivalent doses (2ED50), Group A compounds. Type of series: in vivo. The arrangement: Sedation duration: unit not given here. Conditions: 2ED50, tail vein; for Types and incidence of adverse reactions: (animals affected/animals).
The subject of series [3] is H295R cell line. Description: Adrenocortical function in vitro test: secretion of cortisol and corticosterone, Group A compounds. Type of series: cell-based. Conditions: H295 cells; for EC50: 0.1-10000 nM, HPLC-MS/MS.
Series [4] relates to Sprague-Dawley rats. To be noted: for Recovery time after stopping infusion: LORR maintained for 1 hour; for Recovery time after stopping infusion / Onset time: 2 times the MIR; for Onset time / Types and incidence of adverse reactions: continuous infusion; for Types and incidence of adverse reactions: (animals affected/animals). The method, then: Adult male Sprague-Dawley rats with body weight ranging from 250 to 300 gm were selected for continuous infusion test. […] Time to recovery of righting reflex from stopping infusion, and time to fully awake from stopping infusion were recorded.

Series [5] deals with Sprague-Dawley rats. Put plainly: animal or person. Conditions: for ED50: LORR in rats, tail vein, brackets = 95% confidence limit; for Approximate therapeutic index / Minimal lethal dose: rats. Here is the method:
as §1

For series [6], the system named is H295R cell line. Description: Adrenocortical function in vitro test: secretion of cortisol and corticosterone, Group B compounds. Conditions: H295R cells; for EC50: 0.1-10000 nM, HPLC-MS/MS. It counts as cell-based.
For series [7], the system named is Sprague-Dawley rats. Put plainly: Continuous infusion at 2 times the MIR for 1 hour, Group B compounds. To be noted: for Recovery time after stopping infusion: after 1 hour continuous infusion at 2 times the MIR; for Recovery time after stopping infusion / Onset time: rats; for Onset time: continuous tail vein infusion at 2 times the MIR, emulsion. Type of series: in vivo.

[8] abbreviates: Homo sapiens, read-out: EC50 (Corticosterone).
Setting [9] is: Homo sapiens, read-out: EC50 (Cortisol).
Where [10] appears, read: LORR in rats, tail vein, brackets = 95% confidence limit.
[11] abbreviates: read-out: EC50 (Corticosterone).
[12] abbreviates: continuous infusion 2 x MIR 1 hour, rats affected/rats.

Entries after “also recorded” stand apart in the source; their conditions may differ. Like-named read-outs stand apart in the source and are kept apart here. Bounds are passed on as bounds.

A word on the ED50: it is the dose at which the effect has come halfway, by size or by number of responders. A word on the EC50: it is the concentration at which the effect is half-maximal. Consider `C=C=CC(C)(C)OC(=O)c1ccnn1[C@H](C)c1ccccc1` [Compound A14], for which, in the series on Sprague-Dawley rats [1] (Rattus norvegicus), the ED50 lay within 1 to 2 mg/kg. Also, in the series with Sprague-Dawley rats [1], the Approximate therapeutic index is more than 8 and the Minimal lethal dose is reported as more than 11 mg/kg. For the same compound, in the series on Sprague-Dawley rats [2], the Onset time is 0.78 ± 0.22 min; the Righting reflex duration worked out at 1.20 ± 0.72 min; the “Types and incidence of adverse reactions” value is on record as “Red urine(5/5), Four limbs; also recorded: Tremor(1/5)”. In addition, in the series on H295R cell line [3], the “Corticosterone as an indicator to determine the presence of inhibition” value (from here on “Corticosterone as an indicator … of inhibition”) was determined as 0 and the “Cortisol as an indicator to determine the presence of inhibition” value (“Cortisol as an indicator … of inhibition” for short) came to 0. The EC50 in the series on H295R cell line [3] (setting [8]) is more than 1 µM. Moreover, in the series with H295R cell line [3] (setting [9]), the EC50 is more than 1 µM. In addition, in the series on Sprague-Dawley rats [4], the “Recovery time after stopping infusion” value was 10 to 14 min; the Onset time is 6 to 7 min; the “Types and incidence of adverse reactions” value is “Tremor(1/6),”.
As to `COC1CC(OC(=O)c2c(F)cnn2C(C)c2ccccc2)C1` (centres unmarked) [Compound A76], the ED50 result in the series on Sprague-Dawley rats [1] (setting [10]) is “A (A indicates that the measured ED50 is in the range of 0.04-0.50 mg/kg (including 0.04 and 0.50 mg/kg))”. For the same compound, in the series with Sprague-Dawley rats [1], the Approximate therapeutic index was more than 10 and the Minimal lethal dose was more than 2 mg/kg. For the same compound, in the series on Sprague-Dawley rats [2], the Onset time is reported as 0.36 ± 0.12 min; the Righting reflex duration was 2.29 ± 0.56 min; the Sedation duration is on record as 9.08 ± 2.16; the “Types and incidence of adverse reactions” value is on record as “Red urine(8/8),; also recorded: Tremor(2/8),; also recorded: Euphoria(1/8)”. In the series with H295R cell line [3], the “Corticosterone as an indicator … of inhibition” value is 0 and the “Cortisol as an indicator … of inhibition” value is reported as 0. For the same compound, in the series on H295R cell line [3] (setting [11]), the EC50 was more than 1 µM. For the same compound, in the series with H295R cell line [3] (read-out: EC50 (Cortisol)), the half-maximal effective concentration (EC50) was more than 1 µM. Besides, in the series on Sprague-Dawley rats [4], the “Recovery time after stopping infusion” value was 14 to 16 min; the Onset time lay within 3 to 4 min; the “Types and incidence of adverse reactions” value is listed as “Tremor(1/6), Tongue; also recorded: stretching(2/6)”.
For `COC(=O)C1=C(OC(=O)c2ccnn2[C@H](C)c2ccccc2)CCC1` [Compound A20], the ED50 result with Sprague-Dawley rats [1] (setting [10]) is recorded as “C (C indicates that the measured ED50 is in the range of 1.00-2.00 mg/kg (excluding 1.00 mg/kg, including 2.00 mg/kg))”. In the series with Sprague-Dawley rats [1], this compound returned an Approximate therapeutic index of more than 10 and a Minimal lethal dose of more than 12 mg/kg. Moreover, in the series on Sprague-Dawley rats [2], the Onset time is recorded as 0.67 ± 0.14 min; the Righting reflex duration is 1.15 ± 0.66 min; the Sedation duration worked out at 7.05 ± 3.95; the “Types and incidence of adverse reactions” value is on record as “Red urine(8/8), Hindlimb; also recorded: rigidity(3/8), General; also recorded: Tremor(1/8)”. Also, in the series with H295R cell line [3], the “Corticosterone as an indicator … of inhibition” value came out at 0 and the “Cortisol as an indicator … of inhibition” value is 0. For the same compound, in the series with H295R cell line [3] (setting [11]), the concentration giving a half-maximal response (EC50) is more than 0.1 µM. Also, the EC50 in the series on H295R cell line [3] (read-out: EC50 (Cortisol)) is more than 0.1 µM. Besides, in the series on Sprague-Dawley rats [4], the “Recovery time after stopping infusion” value was in the range of 12 to 15 min; the Onset time was in the range of 5 to 6 min; the “Types and incidence of adverse reactions” value is reported as “Tremor(5/6)”.
Compound `C=C=CC1(OC(=O)c2cc(F)nn2[C@H](C)c2ccccc2)COC1` [Compound A52] came in with a 50% effective dose (ED50) in the series with Sprague-Dawley rats [1] (Rattus norvegicus) of 0.5 to 1 mg/kg. Besides, in the series with Sprague-Dawley rats [1], the Approximate therapeutic index is given as more than 16 and the Minimal lethal dose is recorded as more than 11 mg/kg. Also, in the series with Sprague-Dawley rats [2], the Onset time worked out at 0.50 ± 0.08 min; the Righting reflex duration was 2.01 ± 1.00 min; the “Types and incidence of adverse reactions” value is “Red and urine(8/8), Euphoria(3/8), and broken-winded(1/8)”. Moreover, in the series with H295R cell line [3], the “Corticosterone as an indicator … of inhibition” value stood at 0 and the “Cortisol as an indicator … of inhibition” value was determined as 0. The EC50 in the series on H295R cell line [3] (setting [8]) was more than 1 µM. In addition, in the series on H295R cell line [3] (setting [9]), the EC50 is more than 1 µM. Moreover, in the series on Sprague-Dawley rats [4], the “Recovery time after stopping infusion” value is 13 to 18 min; the Onset time was in the range of 5 to 6 min; the “Types and incidence of adverse reactions” value is reported as “Tongue stretching(4/6),; also recorded: Tremor(4/6)”.
For `C[C@H](c1ccccc1)n1nccc1C(=O)OC1CCC1` [Compound A4], in the series on Sprague-Dawley rats [1] (Rattus norvegicus), the median effective dose (ED50) lay in the range of 1 to 2 mg/kg. In the series with Sprague-Dawley rats [1], this compound returned an Approximate therapeutic index of more than 11 and a Minimal lethal dose of more than 15 mg/kg. In the series with Sprague-Dawley rats [2], the Onset time is listed as 0.52 ± 0.21 min; the Righting reflex duration turned out to be 1.39 ± 0.66 min; the “Types and incidence of adverse reactions” value is “Red urine(6/6),; also recorded: Euphoria(5/6), Hindlimb; also recorded: rigidity(1/6)”. Besides, in the series on H295R cell line [3], the “Corticosterone as an indicator … of inhibition” value is given as 0 and the “Cortisol as an indicator … of inhibition” value came out at 0. Also, the EC50 with H295R cell line [3] (setting [8]) was more than 1 µM. Also, in the series on H295R cell line [3] (setting [9]), the EC50 was more than 1 µM. In the series on Sprague-Dawley rats [4], the “Recovery time after stopping infusion” value is 14 to 16 min; the Onset time was in the range of 4 to 5 min; the “Types and incidence of adverse reactions” value is on record as “Tremor(3/6), Tongue; also recorded: stretching(4/6)”.
For `CC(=O)C1=C(OC(=O)c2c(F)nnn2[C@H](C)c2ccccc2)CCCC1` [Compound B47], in the series with Sprague-Dawley rats [5], the ED50 entry is on record as “C (C indicates that the measured ED50 is in the range of 1.00-2.00 mg/kg (excluding 1.00 mg/kg, including 2.00 mg/kg))”; the Approximate therapeutic index was more than 9; the Minimal lethal dose is on record as more than 13 mg/kg. In addition, in the series on H295R cell line [6], the “Corticosterone as an indicator … of inhibition” value is reported as 0 and the “Cortisol as an indicator … of inhibition” value amounted to 0. For the same compound, the EC50 in the series with H295R cell line [6] (setting [11]) was more than 0.1 µM. Moreover, the EC50 in the series on H295R cell line [6] (read-out: EC50 (Cortisol)) is more than 0.1 µM. Moreover, in the series on Sprague-Dawley rats [7], the “Recovery time after stopping infusion” value fell in the range of 7 to 15 min and the Onset time was 3 to 4 min. For the same compound, in the series on Sprague-Dawley rats [7] (setting [12]), the “Types and incidence of adverse reactions: Forelimbrigidity” value is given as “Forelimbrigidity(1/6)”; the “Types and incidence of adverse reactions: Tremor” value (shortened to “Types and incidence … Tremor”) is listed as “Tremor(4/6),”.
With `C=C=CC1(OC(=O)c2cnnn2[C@H](C)c2ccccc2)COC1` [Compound B3], the ED50 with Sprague-Dawley rats [5] (Rattus norvegicus) was in the range of 0.04 to 0.5 mg/kg. In the series on Sprague-Dawley rats [5], this compound displayed an Approximate therapeutic index of more than 32 and a Minimal lethal dose of more than 6 mg/kg. Also, in the series on H295R cell line [6], the “Corticosterone as an indicator … of inhibition” value worked out at 0 and the “Cortisol as an indicator … of inhibition” value is recorded as 0. The EC50 in the series with H295R cell line [6] (Homo sapiens, NCI-H295R, read-out: EC50 (Corticosterone)) was more than 1 µM. Further, the EC50 in the series on H295R cell line [6] (Homo sapiens, NCI-H295R, read-out: EC50 (Cortisol)) is more than 1 µM. Moreover, in the series with Sprague-Dawley rats [7], the “Recovery time after stopping infusion” value lay in the range of 15 to 16 min and the Onset time was 3 to 4 min. In the series with Sprague-Dawley rats [7] (setting [12]), the “Types and incidence of adverse reactions: Tongue stretching” value is reported as “stretching(3/6)”; the “Types and incidence … Tremor” value is given as “Tremor(4/6), Tongue”.
With `C[C@H](c1ccccc1)n1nncc1C(=O)OC(C)(C)C` [Compound B12], in the series with Sprague-Dawley rats [5], the ED50 entry was “A (A indicates that the measured ED50 is in the range of 0.04-0.50 mg/kg (including 0.04 and 0.50 mg/kg))”; the Approximate therapeutic index is recorded as more than 16; the Minimal lethal dose was more than 5 mg/kg. For the same compound, in the series with H295R cell line [6], the “Corticosterone as an indicator … of inhibition” value came to 0 and the “Cortisol as an indicator … of inhibition” value worked out at 0. For the same compound, the EC50 with H295R cell line [6] (setting [11]) was more than 1 µM. Besides, the EC50 with H295R cell line [6] (read-out: EC50 (Cortisol)) was more than 1 µM. Also, in the series with Sprague-Dawley rats [7], the “Recovery time after stopping infusion” value was in the range of 13 to 15 min and the Onset time lay in the range of 5 to 6 min. Besides, the “Types and incidence … Tremor” value with Sprague-Dawley rats [7] (setting [12]) was “Tremor(3/6)”.
Consider `CCOC(=O)c1c(Br)nnn1[C@H](C)c1ccccc1` [Compound B118], for which, in the series with Sprague-Dawley rats [5], the ED50 result is reported as “C (C indicates that the measured ED50 is in the range of 1.00-2.00 mg/kg (excluding 1.00 mg/kg, including 2.00 mg/kg))”; the Approximate therapeutic index is on record as more than 12; the Minimal lethal dose was more than 17 mg/kg. In the series with H295R cell line [6], the “Corticosterone as an indicator … of inhibition” value was 0 and the “Cortisol as an indicator … of inhibition” value worked out at 0. The EC50 in the series with H295R cell line [6] (setting [11]) was more than 1 µM. The EC50 in the series with H295R cell line [6] (read-out: EC50 (Cortisol)) is more than 1 µM. In addition, in the series on Sprague-Dawley rats [7], the “Recovery time after stopping infusion” value was 13 to 15 min and the Onset time fell in the range of 6 to 7 min. In the series on Sprague-Dawley rats [7] (setting [12]), the “Types and incidence of adverse reactions: Tongue stretching” value is “stretching(4/6)”; the “Types and incidence … Tremor” value was “Tremor(4/6), Tongue”.
